From patent publication US20220267298A1 (priority 2019, published 2022)
Where “and” joins values, the source holds several entries; their conditions need not be identical. Equal entries are not always repeated.

biological target: T1, GRK2 (Homo sapiens, UniProt P25098); experiment: biochemical; settings: GRK2 IC50 (μM), 10 nM GRK2; 10 uM ATP
T1 sequence (P25098 1-689): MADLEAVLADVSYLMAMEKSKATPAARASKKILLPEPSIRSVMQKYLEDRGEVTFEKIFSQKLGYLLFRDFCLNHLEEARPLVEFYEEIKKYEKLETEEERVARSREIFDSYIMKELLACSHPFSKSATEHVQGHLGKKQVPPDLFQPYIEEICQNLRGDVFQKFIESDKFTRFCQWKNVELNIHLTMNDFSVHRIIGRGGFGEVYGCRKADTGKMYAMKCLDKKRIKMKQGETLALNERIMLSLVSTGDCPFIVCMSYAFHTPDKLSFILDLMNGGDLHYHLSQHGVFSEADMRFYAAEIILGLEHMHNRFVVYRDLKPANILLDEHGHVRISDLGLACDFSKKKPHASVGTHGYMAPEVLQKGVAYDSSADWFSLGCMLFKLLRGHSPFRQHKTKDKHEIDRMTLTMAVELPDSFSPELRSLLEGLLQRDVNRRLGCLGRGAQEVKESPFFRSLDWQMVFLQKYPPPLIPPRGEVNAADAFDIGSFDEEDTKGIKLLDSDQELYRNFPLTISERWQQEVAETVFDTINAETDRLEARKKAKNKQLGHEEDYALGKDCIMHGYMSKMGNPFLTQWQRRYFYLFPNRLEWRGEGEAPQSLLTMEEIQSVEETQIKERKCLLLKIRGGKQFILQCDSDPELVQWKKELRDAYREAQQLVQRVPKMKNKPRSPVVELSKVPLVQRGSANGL

IC50	Structure (SMILES)
5.59 µM	CCOc1cccc(C(CS(C)(=O)=O)n2cnc3ccc(-c4cn[nH]c4)cc3c2=O)c1 (centres unmarked) [Compound 15, 3-(1-(3-Ethoxyphenyl)-2-(methylsulfonyl)ethyl)-6-(1H-pyrazol-4-yl)quinazolin-4(3H)-one]
1.31 µM	CC(c1cccc(OCCS(C)(=O)=O)c1)n1cnc2ccc(-c3cn[nH]c3)cc2c1=O (centres unmarked) [Compound 17, 3-(1-(3-(2-(Methylsulfonyl)ethoxy)phenyl)ethyl)-6-(1H-pyrazol-4-yl)quinazolin-4(3H)-one]
> 50 µM	COc1cccc(C(C)n2cnc3ccc(-c4c[nH]nc4N)cc3c2=O)c1 (centres unmarked) [Compound 19, 6-(3-Amino-1H-pyrazol-4-yl)-3-[1-(3-methoxyphenyl)ethyl]quinazolin-4-one]
0.014 µM	COc1cccc(Cn2c(C)nc3ccc(-c4cn[nH]c4)cc3c2=O)c1 [Compound 20, 3-[(3-Methoxyphenyl)methyl]-2-methyl-6-(1H-pyrazol-4-yl)quinazolin-4-one]
0.425 µM	COc1cccc(Cn2c(C(F)(F)F)nc3ccc(-c4cn[nH]c4)cc3c2=O)c1 [Compound 21, 3-[(3-Methoxyphenyl)methyl]-6-(1H-pyrazol-4-yl)-2-(trifluoromethyl)quinazolin-4-one]
4.11 µM	COc1cccc(C(C2CCS(=O)(=O)CC2)n2cnc3ccc(-c4cn[nH]c4)cc3c2=O)c1 (centres unmarked) [Compound 22, 3-((1,1-Dioxidotetrahydro-2H-thiopyran-4-yl)(3-methoxyphenyl)methyl)-6-(1H-pyrazol-4-yl)quinazolin-4(3H)-one]
0.035 µM	[2H]C([2H])(Oc1cccc([C@@H](C)n2cnc3ccc(-c4cn[nH]c4)cc3c2=O)c1)C(=O)NC1CC1 [Compound 23, N-Cyclopropyl-2,2-dideuterio-2-[3-[(1R)-1-[4-oxo-6-(1H-pyrazol-4-yl)quinazolin-3-yl]ethyl]phenoxy]acetamide]
0.096 µM	CC(c1cccc(C(=O)NC2CN(C)C2)c1)n1cnc2ccc(-c3cn[nH]c3)cc2c1=O (centres unmarked) [Compound 24, N-(1-Methylazetidin-3-yl)-3-[1-[4-oxo-6-(1H-pyrazol-4-yl)quinazolin-3-yl]ethyl]benzamide]
2.34 µM	Cc1nc2ccc(-c3cn[nH]c3)cc2c(=O)n1Cc1cccc(OC2CN(C)C2)c1 [Compound 25, 2-Methyl-3-(3-((1-methylazetidin-3-yl)oxy)benzyl)-6-(1H-pyrazol-4-yl)quinazolin-4(3H)-one]
0.143 µM	[2H]C([2H])(Oc1cccc([C@@H](C)n2cnc3ccc(-c4cn[nH]c4)cc3c2=O)c1)C(=O)O [Compound 26, 2,2-Dideuterio-2-[3-[(1R)-1-[4-oxo-6-(1H-pyrazol-4-yl)quinazolin-3-yl]ethyl]phenoxy]acetic Acid]
0.088 µM	O=C(O)COc1cccc(Cn2cnc3ccc(-c4cn[nH]c4)cc3c2=O)c1 [Compound 27, 2-[3-[[4-Oxo-6-(1H-pyrazol-4-yl)quinazolin-3-yl]methyl]phenoxy]acetic acid]
0.446 µM	O=c1c2cc(-c3cn[nH]c3)ccc2ncn1Cc1cccc(-c2ncco2)c1 [Compound 28, 3-(3-(Oxazol-2-yl)benzyl)-6-(1H-pyrazol-4-yl)quinazolin-4(3H)-one]
0.054 µM	COc1cccc(C(CCN(C)C)n2cnc3ccc(-c4cn[nH]c4)cc3c2=O)c1 (centres unmarked) [Compound 29, 3-(3-(Dimethylamino)-1-(3-methoxyphenyl)propyl)-6-(1H-pyrazol-4-yl)quinazolin-4(3H)-one]
0.008 µM	CC(c1cccc(O)c1)n1cnc2ccc(-c3cn[nH]c3)cc2c1=O (centres unmarked) [Compound 31, 3-[1-(3-Hydroxyphenyl)ethyl]-6-(1H-pyrazol-4-yl)quinazolin-4-one]
0.157 µM	COc1cccc(C(CCO)n2cnc3ccc(-c4cn[nH]c4)cc3c2=O)c1 (centres unmarked) [Compound 32, 3-(3-Hydroxy-1-(3-methoxyphenyl)propyl)-6-(1H-pyrazol-4-yl)quinazolin-4(3H)-one]
0.033 µM	CC(c1cccc(NS(C)(=O)=O)c1)n1cnc2ccc(-c3cn[nH]c3)cc2c1=O (centres unmarked) [Compound 33, N-[3-[1-[4-Oxo-6-(1H-pyrazol-4-yl)quinazolin-3-yl]ethyl]phenyl]methanesulfonamide]
0.03 µM	NS(=O)(=O)c1cccc(Cn2cnc3ccc(-c4cn[nH]c4)cc3c2=O)c1 [Compound 34, 3-[[4-Oxo-6-(1H-pyrazol-4-yl)quinazolin-3-yl]methyl]benzenesulfonamide]
0.122 µM	CCC(c1cccc(OC)c1)n1cnc2ccc(-c3cn[nH]c3)cc2c1=O (centres unmarked) [Compound 35, 3-[1-(3-Methoxyphenyl)propyl]-6-(1H-pyrazol-4-yl)quinazolin-4-one]
0.066 µM	COc1cccc(Cn2cnc3ccc(-c4c[nH]nc4C)cc3c2=O)c1 [Compound 37, 3-[(3-Methoxyphenyl)methyl]-6-(3-methyl-1H-pyrazol-4-yl)quinazolin-4-one]

IC50	Structure (SMILES)
0.129 µM	COc1cccc(Cn2cnc3ccc(-n4cn[nH]c4=O)cc3c2=O)c1 [Compound 38, 3-[(3-Methoxyphenyl)methyl]-6-(5-oxo-1H-1,2,4-triazol-4-yl)quinazolin-4-one]
0.009 µM and 0.017 µM	COc1cccc([C@@H](C)n2cnc3ccc(-c4cn[nH]c4)cc3c2=O)c1 [Compound 39, 3-[(1R)-1-(3-Methoxyphenyl)ethyl]-6-(1H-pyrazol-4-yl)quinazolin-4-one]
1.72 µM	COc1ccc(F)cc1Cn1cnc2ccc(-c3cn[nH]c3)cc2c1=O [Compound 40, 3-[(5-Fluoro-2-methoxy-phenyl)methyl]-6-(1H-pyrazol-4-yl)quinazolin-4-one]
0.065 µM	CC(=O)c1cccc(Cn2cnc3ccc(-c4cn[nH]c4)cc3c2=O)c1 [Compound 41, 3-[(3-Acetylphenyl)methyl]-6-(1H-pyrazol-4-yl)quinazolin-4-one]
0.025 µM	COc1cccc(C(CO)n2cnc3ccc(-c4cn[nH]c4)cc3c2=O)c1 (centres unmarked) [Compound 42, 3-[2-Hydroxy-1-(3-methoxyphenyl)ethyl]-6-(1H-pyrazol-4-yl)quinazolin-4-one]
0.757 µM	COc1cccc(Cn2cnc3ccc(-c4c[nH]c5ncccc45)cc3c2=O)c1 [Compound 43, 3-[(3-Methoxyphenyl)methyl]-6-(1H-pyrrolo[2,3-b]pyridin-3-yl)quinazolin-4-one]
0.1 µM	COc1cccc(Cn2cnc3ccc(-c4cn[nH]n4)cc3c2=O)c1 [Compound 44, 3-[(3-Methoxyphenyl)methyl]-6-(2H-triazol-4-yl)quinazolin-4-one]
0.271 µM	COc1cccc(Cn2cnc3ccc(-c4ccnc(N)n4)cc3c2=O)c1 [Compound 45, 6-(2-Aminopyrimidin-4-yl)-3-[(3-methoxyphenyl)methyl]quinazolin-4-one]
1.46 µM	COc1cccc(Cn2cnc3ccc(-c4cn[nH]c(=O)c4)cc3c2=O)c1 [Compound 46, 3-[(3-Methoxyphenyl)methyl]-6-(6-oxo-1H-pyridazin-4-yl)quinazolin-4-one]
> 50 µM	COc1cccc(Cn2cnc3ccc(-c4nn[nH]n4)cc3c2=O)c1 [Compound 48, 3-[(3-Methoxyphenyl)methyl]-6-(2H-tetrazol-5-yl)quinazolin-4-one]
> 50 µM	O=c1c2cc(-c3cccnc3)ccc2ncn1Cc1cccc(Cl)c1 [Compound 49, 3-[(3-Chlorophenyl)methyl]-6-(3-pyridyl)quinazolin-4-one]
0.075 µM	O=c1c2cc(-c3cn[nH]c3)ccc2ncn1Cc1cccc(Cl)c1 [Compound 50, 3-[(3-Chlorophenyl)methyl]-6-(1H-pyrazol-4-yl)quinazolin-4-one]
> 19 µM	COc1cccc(Cn2cnc3ccc(-c4cnc(N)nc4)cc3c2=O)c1 [Compound 52, 6-(2-Aminopyrimidin-5-yl)-3-(3-methoxybenzyl)quinazolin-4(3H)-one]
2.45 µM	COc1cccc(Cn2cnc3ccc(-c4ccnc5[nH]ccc45)cc3c2=O)c1 [Compound 53, 3-[(3-Methoxyphenyl)methyl]-6-(1H-pyrrolo[2,3-b]pyridin-4-yl)quinazolin-4-one]
12.3 µM	COc1cc(Cn2cnc3ccc(-c4ccnc5[nH]ccc45)cc3c2=O)ccc1F [Compound 54, 3-[(4-Fluoro-3-methoxy-phenyl)methyl]-6-(1H-pyrrolo[2,3-b]pyridin-4-yl)quinazolin-4-one]
0.014 µM	NC1CCN(c2nc3ccc(-c4cn[nH]c4)cc3c(=O)n2Cc2cccc(C(=O)NCc3ccc(F)cc3)c2)C1 (centres unmarked) [Compound 55, 3-[[2-(3-Aminopyrrolidin-1-yl)-4-oxo-6-(1H-pyrazol-4-yl)quinazolin-3-yl]methyl]-N-[(4-fluorophenyl)methyl]benzamide]
< 0.01 µM	O=C(NCc1ccc(F)cc1)c1cccc(Cn2cnc3ccc(-c4cn[nH]c4)c(F)c3c2=O)c1 [Compound 57, 3-[[5-Fluoro-4-oxo-6-(1H-pyrazol-4-yl)quinazolin-3-yl]methyl]-N-[(4-fluorophenyl)methyl]benzamide]
0.007 µM	CC(c1cccc(C(=O)NCc2ccc(F)cc2)c1)n1cnc2ccc(-c3cn[nH]c3)cc2c1=O (centres unmarked) [Compound 61, N-[(4-Fluorophenyl)methyl]-3-[1-[4-oxo-6-(1H-pyrazol-4-yl)quinazolin-3-yl]ethyl]benzamide]
0.065 µM	O=c1c2cc(-c3cn[nH]c3)ccc2ncn1Cc1cccc(OCc2ccccc2)c1 [Compound 63, 3-[(3-Benzyloxyphenyl)methyl]-6-(1H-pyrazol-4-yl)quinazolin-4-one]
